Values after ≈ are worked out from the molar mass of the structure shown.
The molecules below were run on Mycobacterium tuberculosis variant bovis (assay: Antimycobacterial activity against Mycobacterium bovis BCG Pasteur ATCC 35734 by microplate alamar blue assay).
Type: functional

Compound	MIC
CN1CCCCC1CCN1c2ccccc2Sc2ccc(Cl)cc21 (stereo unspecified)	8 µg/mL (≈ 22.3 µM)
CN1CCCCC1CCn1c2ccccc2c2ccccc21 (stereo unspecified)	> 64 µg/mL
CN1CCCCC1CCn1cnc2ccccc21 (stereo unspecified)	> 64 µg/mL
c1ccc2c(c1)ccn2CCC1CCCCN1 (stereo unspecified)	64 µg/mL (≈ 280 µM)
CSc1ccc2c(c1)N(CCCN1CCN(C)CC1)c1ccccc1S2	8 µg/mL (≈ 20.7 µM)
Clc1ccc2c(c1)N(CCCN1CCN(c3ccccc3)CC1)c1ccccc1S2	> 64 µg/mL
Clc1ccc2c(c1)N(CCCN1CCSCC1)c1ccccc1S2	> 64 µg/mL
c1ccc2c(c1)c1ccccc1n2CCC1CCCCN1 (stereo unspecified)	> 64 µg/mL
CN1CCCCC1CCN1c2ccccc2Sc2ccccc21 (stereo unspecified)	64 µg/mL (≈ 197 µM)
c1ccc(N2CCN(CCCN3c4ccccc4Sc4ccccc43)CC2)cc1	> 64 µg/mL
CCCN1CCCCC1CCN1c2ccccc2Sc2ccc(SC)cc21 (stereo unspecified)	64 µg/mL (≈ 161 µM)
CSc1ccc2c(c1)N(CCC1CCCCN1C(C)C)c1ccccc1S2 (stereo unspecified)	> 64 µg/mL
c1ccc2c(c1)Sc1ccccc1N2CCC1CCCCN1 (stereo unspecified)	> 64 µg/mL
c1ccc2c(c1)ncn2CCC1CCCCN1 (stereo unspecified)	> 64 µg/mL
CSc1ccc2c(c1)N(CCCN1CCN(c3ccccc3)CC1)c1ccccc1S2	> 64 µg/mL
CSc1ccc2c(c1)N(CCCN1CCN(C34CC5CC(CC(C5)C3)C4)CC1)c1ccccc1S2	64 µg/mL (≈ 127 µM)
CSc1ccc2c(c1)N(CCC1CCCCN1)c1ccccc1S2 (stereo unspecified)	8 µg/mL (≈ 22.4 µM)
CSc1ccc2c(c1)N(C(=O)CN1CCN(C)CC1)c1ccccc1S2	> 64 µg/mL
Clc1ccc2c(c1)N(CCC1CCCCN1)c1ccccc1S2 (stereo unspecified)	5.3 µg/mL (≈ 15.4 µM)
CSc1ccc2c(c1)N(CCCN1CCN(C3C4CC5CC(C4)CC3C5)CC1)c1ccccc1S2 (stereo unspecified)	> 64 µg/mL
CN1CCN(CCCn2ccc3ccccc32)CC1	> 64 µg/mL
CSc1ccc2c(c1)N(CCCN1CCSCC1)c1ccccc1S2	> 64 µg/mL
CSc1ccc2c(c1)N(CCC1CCCCN1Cc1ccccc1)c1ccccc1S2 (stereo unspecified)	8 µg/mL (≈ 17.9 µM)
NNC(=O)c1ccncc1 [ISONIAZID]	0.063 µg/mL (≈ 0.459 µM)
CN1CCN(CCCN2c3ccccc3Sc3ccccc32)CC1 [PERAZINE]	64 µg/mL (≈ 189 µM)
CSc1ccc2c(c1)N(CCC1CCCCN1C)c1ccccc1S2 (stereo unspecified) [THIORIDAZINE]	16 µg/mL (≈ 43.2 µM)
